We go through 26 compounds from patent publication US10538512B2, “Aminoacylindazole immunomodulators for treatment of autoimmune diseases” (The Rockefeller University, priority 2016, dated 2020).

The IC50 is the midpoint of a concentration-inhibition curve. A lower IC50 goes with higher potency.

This test deals with T1, Human FXIIa (Homo sapiens, UniProt P00748).
T1 construct: active coagulation factor XII (FXIIa); purchased Enzyme Research Labs
T1 sequence (P00748 373-615 limits assumed): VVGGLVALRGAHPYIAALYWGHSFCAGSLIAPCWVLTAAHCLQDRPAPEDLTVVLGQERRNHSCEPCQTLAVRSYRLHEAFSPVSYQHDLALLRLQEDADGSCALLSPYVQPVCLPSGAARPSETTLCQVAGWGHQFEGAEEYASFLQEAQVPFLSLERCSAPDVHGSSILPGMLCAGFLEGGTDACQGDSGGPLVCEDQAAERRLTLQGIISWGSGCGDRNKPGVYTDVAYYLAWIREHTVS
T1 sequence (P00748 20-372 partner limits assumed): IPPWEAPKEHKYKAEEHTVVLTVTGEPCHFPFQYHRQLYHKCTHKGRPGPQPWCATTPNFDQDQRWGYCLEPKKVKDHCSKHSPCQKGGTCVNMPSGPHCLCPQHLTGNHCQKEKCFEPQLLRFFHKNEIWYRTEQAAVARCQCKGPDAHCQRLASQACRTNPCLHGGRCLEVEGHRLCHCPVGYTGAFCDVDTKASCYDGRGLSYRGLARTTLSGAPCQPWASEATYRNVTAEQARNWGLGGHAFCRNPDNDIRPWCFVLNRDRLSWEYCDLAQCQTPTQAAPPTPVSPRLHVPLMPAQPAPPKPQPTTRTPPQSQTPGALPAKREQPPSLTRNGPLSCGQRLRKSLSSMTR
As to the kind of experiment: Factor XIIa (FXIIa) inhibitory activity, chromogenic substrate assay. The format is biochemical. The settings on record: Human FXIIa 12.5 nM, Pefachrome XIIa 400 μM, 10 min preincubation. The procedure: Factor XIIa (FXIIa) Inhibitory Activity:
In a 96-well clear bottom plate, 80 μl of assay buffer was added to each well. Assay buffer consists of 0.5× Hank's Balanced Salt Solution (Invitrogen), buffered with 25 mM HEPES pH 7.4 (Invitrogen) and 0.5× Tris-buffered saline with Tween-20 0.05% (Santa Cruz Biotechnology). Test compounds were first dissolved in DMSO (Sigma) and then 4 μl were added to test wells containing assay buffer. Serial dilutions using an automated multi-channel pipette were used to generate a concentration range of approximately 1-100 μM. […] 80 μl of this enzyme solution was added to the assay wells. The enzyme/compound mixtures were incubated for 10 minutes at room temperature. Chromogenic substrate (Pefachrome XIIa; Enzyme Research Labs) was added to assay wells at a final concentration of 400 μM. The assay plate was spun for 1 minute at 1500 g and then read at 37° C. in a SpectraMax M2 plate reader (λ=405 nm). Activity was quantified as the rate of change in absorbance, which corresponds to the rate of substrate cleavage.
The compound `Nc1nn(C(=O)[C@H]2CCNc3ccc(F)cc32)c2c1C[C@H](O)CC2` (relative stereo) [Example 131, ((5R*)-3-amino-5-hydroxy-4,5,6,7-tetrahydro-2H-indazol-1-yl)((4S*)-6-fluoro-1,2,3,4-tetrahydroquinolin-4-yl)methanone] yielded an IC50 above 90 µM.
With `Nc1nn(C(=O)[C@@H]2CCNc3ccc(F)cc32)c2c1C[C@H](O)CC2` (relative stereo) [Example 132, ((5R*)-3-amino-5-hydroxy-4,5,6,7-tetrahydro-2H-indazol-1-yl)((4R*)-6-fluoro-1,2,3,4-tetrahydroquinolin-4-yl)methanone] the figure was above 90 µM; with `Cc1cccc2c1NCC[C@@H]2C(=O)n1nc2c(c1N)C[C@@H](N)CC2` (relative stereo) [Example 213, ((5S*)-3,5-diamino-4,5,6,7-tetrahydroindazol-2-yl)((4S*)-8-methyl-1,2,3,4-tetrahydroquinolin-4-yl)methanone], 0.06 µM; with `Nc1c2c(nn1C(=O)[C@H]1CCNc3c(Cl)cccc31)CC[C@H](N)C2` (relative stereo) [Example 215, ((4S*)-8-chloro-1,2,3,4-tetrahydroquinolin-4-yl)((5S*)-3,5-diamino-4,5,6,7-tetrahydroindazol-2-yl)methanone], 0.07 µM.
As for `Nc1c2c(nn1C(=O)[C@@H]1CCNc3c(Cl)cccc31)CC[C@H](N)C2` (relative stereo) [Example 216, ((4R*)-8-chloro-1,2,3,4-tetrahydroquinolin-4-yl)((5S*)-3,5-diamino-4,5,6,7-tetrahydroindazol-2-yl)methanone], the midpoint of inhibition, the IC50, lay at 3 µM.
With `Cc1csc(C)c1C(=O)n1nc2c(c1N)CCCC2` (single isomer, unassigned) [Example 16, (3-Amino-4,5,6,7-tetrahydroindazol-2-yl)(2,4-dimethylthiophen-3-yl)methanone] the figure was 15 µM; with `CN1CCC(C(=O)n2nc3c(c2N)CCCC3)c2ccccc21` (single isomer, unassigned) [Example 25, (3-Amino-4,5,6,7-tetrahydroindazol-2-yl)(1-methyl-1,2,3,4-tetrahydroquinolin-4-yl)methanone], 0.3 µM.
With `Nc1c2c(nn1C(=O)c1cccc3c1CC(=O)N3)CCCC2` (single isomer, unassigned) [Example 64, 4-(3-amino-4,5,6,7-tetrahydro-2H-indazole-2-carbonyl)indolin-2-one], 0.2 µM corresponded to half-maximal inhibition (IC50).
With `CCc1cc2c(C(=O)n3nc4c(c3N)CCCC4)cccc2n1C` (single isomer, unassigned) [Example 66, (3-amino-4,5,6,7-tetrahydroindazol-2-yl)(2-ethyl-1-methyl-1H-indol-4-yl)methanone] the figure was 0.01 µM; with `CN1CCC(C(=O)n2nc3c(c2N)CCCC3)c2ccccc21` (single isomer, unassigned) [Example 72, (S*)-(3-amino-4,5,6,7-tetrahydroindazol-2-yl)(1-methyl-1,2,3,4-tetrahydroquinolin-4-yl)methanone], 0.15 µM; with `Nc1c2c(nn1C(=O)C1CCNc3ccccc31)CCCC2` (single isomer, unassigned) [Example 78, (R*)-(3-amino-4,5,6,7-tetrahydroindazol-2-yl)(1,2,3,4-tetrahydroquinolin-4-yl)methanone], 0.15 µM.
The figure for `CCc1cc2c([nH]1)CCCC2C(=O)n1nc2c(c1N)CCCC2` (single isomer, unassigned) [Example 83, (S*)-(3-amino-4,5,6,7-tetrahydroindazol-2-yl)(2-ethyl-4,5,6,7-tetrahydro-1H-indol-4-yl)methanone] is 0.02 µM; for `CCc1cc2c([nH]1)CCCC2C(=O)n1nc2c(c1N)CCCC2` (single isomer, unassigned) [Example 84, (R*)-(3-amino-4,5,6,7-tetrahydroindazol-2-yl)(2-ethyl-4,5,6,7-tetrahydro-1H-indol-4-yl)methanone] it is 3.3 µM.
The figure for `Nc1c2c(nn1C(=O)C1CCCc3[nH]ccc31)CCCC2` (single isomer, unassigned) [Example 94, (S*)-(3-amino-4,5,6,7-tetrahydroindazol-2-yl)(4,5,6,7-tetrahydro-1H-indol-4-yl)methanone] is 0.25 µM; for `Cn1ccc2c1CCCC2C(=O)n1nc2c(c1N)CCCC2` (single isomer, unassigned) [Example 97, (S*)-(3-amino-4,5,6,7-tetrahydroindazol-2-yl)(1-methyl-4,5,6,7-tetrahydro-1H-indol-4-yl)methanone] it is 0.4 µM; for `Nc1c2c(nn1C(=O)C1CCCc3[nH]c(Cl)cc31)CCCC2` (single isomer, unassigned) [Example 106, (S*)-(3-amino-4,5,6,7-tetrahydro-2H-indazol-2-yl)(2-chloro-4,5,6,7-tetrahydro-1H-indol-4-yl)methanone] it is 0.04 µM.
With `Nc1c2c(nn1C(=O)C1CCCc3[nH]c(Cl)cc31)CCCC2` (single isomer, unassigned) [Example 107, (R*)-(3-amino-4,5,6,7-tetrahydro-2H-indazol-2-yl)(2-chloro-4,5,6,7-tetrahydro-1H-indol-4-yl)methanone], the 50% inhibitory concentration (IC50) was determined as 8 µM.
The figure for `Nc1c2c(nn1C(=O)C1CCCc3[nH]c(Br)cc31)CCCC2` (single isomer, unassigned) [Example 108, (S*)-(3-amino-4,5,6,7-tetrahydroindazol-2-yl)(2-bromo-4,5,6,7-tetrahydro-1H-indol-4-yl)methanone] is 0.07 µM; for `Nc1c2c(nn1C(=O)[C@@H]1CCNc3ccc(F)cc31)CC[C@@H](O)C2` (single isomer, unassigned) [Example 130, ((5R*)-3-amino-5-hydroxy-4,5,6,7-tetrahydro-2H-indazol-2-yl)(4(R*)-6-fluoro-1,2,3,4-tetrahydroquinolin-4-yl)methanone] it is 45 µM.
The figure for `Nc1c2c(nn1C(=O)[C@H]1CCNc3ccc(F)cc31)CC[C@H](O)C2` (single isomer, unassigned) [Example 133, ((5S*)-3-amino-5-hydroxy-4,5,6,7-tetrahydroindazol-2-yl)((4S*)-6-fluoro-1,2,3,4-tetrahydroquinolin-4-yl)methanone] is 33 µM; for `Nc1nn(C(=O)[C@H]2CCNc3ccc(F)cc32)c2c1C[C@@H](O)CC2` (single isomer, unassigned) [Example 135, ((5S*)-3-amino-5-hydroxy-4,5,6,7-tetrahydro-1H-indazol-1-yl)((4S*)-6-fluoro-1,2,3,4-tetrahydroquinolin-4-yl)methanone] it is 24 µM.
With `Nc1nn(C(=O)[C@@H]2CCNc3ccc(F)cc32)c2c1C[C@@H](O)CC2` (single isomer, unassigned) [Example 136, ((5S*)-3-amino-5-hydroxy-4,5,6,7-tetrahydroindazol-1-yl)((4R*)-6-fluoro-1,2,3,4-tetrahydroquinolin-4-yl)methanone] the figure was above 90 µM; with `Nc1c2c(nn1C(=O)[C@@H]1CCNc3ccc(F)cc31)CC[C@@H](F)C2` (single isomer, unassigned) [Example 138, ((5R*)-3-amino-5-fluoro-4,5,6,7-tetrahydroindazol-2-yl)((4R*)-6-fluoro-1,2,3,4-tetrahydroquinolin-4-yl)methanone], 16 µM; with `Nc1nn(C(=O)C2CCNc3ccc(F)cc32)c2c1CC(F)CC2` (single isomer, unassigned) [Example 139, ((5R*)-3-amino-5-fluoro-4,5,6,7-tetrahydroindazol-1-yl)((4RS)-6-fluoro-1,2,3,4-tetrahydroquinolin-4-yl)methanone], 85 µM.
`Nc1c2c(nn1C(=O)[C@@H]1CCNc3ccc(F)cc31)CC[C@H](F)C2` (single isomer, unassigned) [Example 141, ((5S*)-3-amino-5-fluoro-4,5,6,7-tetrahydroindazol-2-yl)((4R*)-6-fluoro-1,2,3,4-tetrahydroquinolin-4-yl)methanone] registered an IC50 of 17 µM.
With `Nc1nn(C(=O)C2CCNc3ccc(F)cc32)c2c1CC(F)CC2` (single isomer, unassigned) [Example 142, ((5S*)-3-amino-5-fluoro-4,5,6,7-tetrahydroindazol-1-yl)((4R/S)-6-fluoro-1,2,3,4-tetrahydroquinolin-4-yl)methanone] the figure was 65 µM.
